Literature values, collected in US10603330B2, “Arginase inhibitors as therapeutics” (Mars, Incorporated, priority 2010, dated 2020).

How the values were obtained:
[1] = system: EAE; details: animals undergoing experimental autoimmune encephalomyelitis
[2] = system: bacterial arginase (H. pylori); details: inhibition of bacterial arginase
[3] = system: central airways responsiveness; details: murine chronic asthma model
[4] = system: blood pressure; details: spontaneously hypertensive animals

For `NC(CCCCB(O)O)C(=O)O` (stereo not shown) [ABH, amino-6-boronohexanoic acid], the “severity of EAE vs control animals” value [1] is given as “much milder form of EAE”.
For `NC(=NCCC[C@H](N)C(=O)O)NO` [NOHA], the “CD3 expression on T-cells” value [2] is listed as “reestablished CD3 expression on T-cells”.
For `N[C@@H](CSCCB(O)O)C(=O)O` [S-(2-boronoethyl)-L-cysteine], the “methacholine induced responsiveness of the central airways” value [3] is listed as “attenuated”.
For `N=C(NO)NCC[C@H](N)C(=O)O` [nor-NOHA, N^ω-hydroxy-nor-L-arginine], the blood pressure [4] is given as “lowered blood pressure”.
